Assay results published in the OligoGym collection.
Oligonucleotides are given in HELM: sugar(base)linkage, 5' to 3'; d 2'-deoxyribose, r ribose, m 2'-O-methylribose, p phosphate. ss, as = sense and antisense strand

target: UBE2N; assay: reporter assay of Huesken 2005; conditions: siRNA
Note: test concentration or dose not given here.

Substance	normalised inhibition (eCFP-eYFP dual reporter)
RNA1{r(A)p.r(A)p.r(A)p.r(C)p.r(U)p.r(U)p.r(G)p.r(A)p.r(A)p.r(C)p.r(U)p.r(A)p.r(U)p.r(U)p.r(C)p.r(C)p.r(U)p.r(U)p.r(C)p.d(T)p.d(T)}|RNA2{r(G)p.r(A)p.r(A)p.r(G)p.r(G)p.r(A)p.r(A)p.r(U)p.r(A)p.r(G)p.r(U)p.r(U)p.r(C)p.r(A)p.r(A)p.r(G)p.r(U)p.r(U)p.r(U)p.d(A)p.d(A)}$$$RNA1{StrandType:ss}|RNA2{StrandType:as}$	43.6%
RNA1{r(A)p.r(A)p.r(A)p.r(U)p.r(G)p.r(A)p.r(U)p.r(G)p.r(U)p.r(A)p.r(G)p.r(C)p.r(G)p.r(G)p.r(A)p.r(G)p.r(C)p.r(A)p.r(G)p.d(T)p.d(T)}|RNA2{r(C)p.r(U)p.r(G)p.r(C)p.r(U)p.r(C)p.r(C)p.r(G)p.r(C)p.r(U)p.r(A)p.r(C)p.r(A)p.r(U)p.r(C)p.r(A)p.r(U)p.r(U)p.r(U)p.d(G)p.d(C)}$$$RNA1{StrandType:ss}|RNA2{StrandType:as}$	43.2%
RNA1{r(A)p.r(A)p.r(G)p.r(C)p.r(C)p.r(A)p.r(U)p.r(A)p.r(G)p.r(A)p.r(A)p.r(A)p.r(C)p.r(A)p.r(G)p.r(C)p.r(U)p.r(A)p.r(G)p.d(T)p.d(T)}|RNA2{r(C)p.r(U)p.r(A)p.r(G)p.r(C)p.r(U)p.r(G)p.r(U)p.r(U)p.r(U)p.r(C)p.r(U)p.r(A)p.r(U)p.r(G)p.r(G)p.r(C)p.r(U)p.r(U)p.d(G)p.d(G)}$$$RNA1{StrandType:ss}|RNA2{StrandType:as}$	90.4%
RNA1{r(A)p.r(A)p.r(G)p.r(C)p.r(C)p.r(C)p.r(A)p.r(A)p.r(G)p.r(C)p.r(C)p.r(A)p.r(U)p.r(A)p.r(G)p.r(A)p.r(A)p.r(A)p.r(C)p.d(T)p.d(T)}|RNA2{r(G)p.r(U)p.r(U)p.r(U)p.r(C)p.r(U)p.r(A)p.r(U)p.r(G)p.r(G)p.r(C)p.r(U)p.r(U)p.r(G)p.r(G)p.r(G)p.r(C)p.r(U)p.r(U)p.d(C)p.d(G)}$$$RNA1{StrandType:ss}|RNA2{StrandType:as}$	61.1%
RNA1{r(A)p.r(A)p.r(G)p.r(C)p.r(C)p.r(G)p.r(A)p.r(A)p.r(C)p.r(C)p.r(A)p.r(G)p.r(A)p.r(U)p.r(G)p.r(A)p.r(G)p.r(A)p.r(G)p.d(T)p.d(T)}|RNA2{r(C)p.r(U)p.r(C)p.r(U)p.r(C)p.r(A)p.r(U)p.r(C)p.r(U)p.r(G)p.r(G)p.r(U)p.r(U)p.r(C)p.r(G)p.r(G)p.r(C)p.r(U)p.r(U)p.d(T)p.d(G)}$$$RNA1{StrandType:ss}|RNA2{StrandType:as}$	88.3%
RNA1{r(A)p.r(A)p.r(G)p.r(U)p.r(G)p.r(G)p.r(U)p.r(C)p.r(C)p.r(C)p.r(C)p.r(A)p.r(G)p.r(C)p.r(A)p.r(C)p.r(U)p.r(G)p.r(C)p.d(T)p.d(T)}|RNA2{r(G)p.r(C)p.r(A)p.r(G)p.r(U)p.r(G)p.r(C)p.r(U)p.r(G)p.r(G)p.r(G)p.r(G)p.r(A)p.r(C)p.r(C)p.r(A)p.r(C)p.r(U)p.r(U)p.d(A)p.d(T)}$$$RNA1{StrandType:ss}|RNA2{StrandType:as}$	48.2%
RNA1{r(A)p.r(A)p.r(U)p.r(G)p.r(U)p.r(A)p.r(G)p.r(A)p.r(C)p.r(A)p.r(A)p.r(G)p.r(U)p.r(U)p.r(G)p.r(G)p.r(G)p.r(A)p.r(A)p.d(T)p.d(T)}|RNA2{r(U)p.r(U)p.r(C)p.r(C)p.r(C)p.r(A)p.r(A)p.r(C)p.r(U)p.r(U)p.r(G)p.r(U)p.r(C)p.r(U)p.r(A)p.r(C)p.r(A)p.r(U)p.r(U)p.d(A)p.d(G)}$$$RNA1{StrandType:ss}|RNA2{StrandType:as}$	93.8%
RNA1{r(A)p.r(C)p.r(C)p.r(A)p.r(A)p.r(A)p.r(A)p.r(U)p.r(U)p.r(U)p.r(A)p.r(U)p.r(C)p.r(A)p.r(U)p.r(C)p.r(C)p.r(U)p.r(A)p.d(T)p.d(T)}|RNA2{r(U)p.r(A)p.r(G)p.r(G)p.r(A)p.r(U)p.r(G)p.r(A)p.r(U)p.r(A)p.r(A)p.r(A)p.r(U)p.r(U)p.r(U)p.r(U)p.r(G)p.r(G)p.r(U)p.d(C)p.d(A)}$$$RNA1{StrandType:ss}|RNA2{StrandType:as}$	81.6%
RNA1{r(A)p.r(C)p.r(C)p.r(A)p.r(G)p.r(U)p.r(U)p.r(C)p.r(C)p.r(U)p.r(G)p.r(G)p.r(C)p.r(A)p.r(U)p.r(C)p.r(A)p.r(A)p.r(A)p.d(T)p.d(T)}|RNA2{r(U)p.r(U)p.r(U)p.r(G)p.r(A)p.r(U)p.r(G)p.r(C)p.r(C)p.r(A)p.r(G)p.r(G)p.r(A)p.r(A)p.r(C)p.r(U)p.r(G)p.r(G)p.r(U)p.d(T)p.d(C)}$$$RNA1{StrandType:ss}|RNA2{StrandType:as}$	97.4%
RNA1{r(A)p.r(C)p.r(C)p.r(C)p.r(A)p.r(A)p.r(U)p.r(G)p.r(G)p.r(C)p.r(A)p.r(G)p.r(C)p.r(C)p.r(C)p.r(C)p.r(U)p.r(A)p.r(A)p.d(T)p.d(T)}|RNA2{r(U)p.r(U)p.r(A)p.r(G)p.r(G)p.r(G)p.r(G)p.r(C)p.r(U)p.r(G)p.r(C)p.r(C)p.r(A)p.r(U)p.r(U)p.r(G)p.r(G)p.r(G)p.r(U)p.d(A)p.d(T)}$$$RNA1{StrandType:ss}|RNA2{StrandType:as}$	64%
RNA1{r(A)p.r(C)p.r(G)p.r(A)p.r(A)p.r(G)p.r(C)p.r(C)p.r(C)p.r(A)p.r(A)p.r(G)p.r(C)p.r(C)p.r(A)p.r(U)p.r(A)p.r(G)p.r(A)p.d(T)p.d(T)}|RNA2{r(U)p.r(C)p.r(U)p.r(A)p.r(U)p.r(G)p.r(G)p.r(C)p.r(U)p.r(U)p.r(G)p.r(G)p.r(G)p.r(C)p.r(U)p.r(U)p.r(C)p.r(G)p.r(U)p.d(T)p.d(G)}$$$RNA1{StrandType:ss}|RNA2{StrandType:as}$	77.5%
RNA1{r(A)p.r(C)p.r(G)p.r(C)p.r(C)p.r(C)p.r(G)p.r(U)p.r(U)p.r(A)p.r(U)p.r(U)p.r(U)p.r(U)p.r(C)p.r(A)p.r(U)p.r(G)p.r(U)p.d(T)p.d(T)}|RNA2{r(A)p.r(C)p.r(A)p.r(U)p.r(G)p.r(A)p.r(A)p.r(A)p.r(A)p.r(U)p.r(A)p.r(A)p.r(C)p.r(G)p.r(G)p.r(G)p.r(C)p.r(G)p.r(U)p.d(T)p.d(G)}$$$RNA1{StrandType:ss}|RNA2{StrandType:as}$	62.4%
RNA1{r(A)p.r(C)p.r(G)p.r(U)p.r(U)p.r(U)p.r(C)p.r(A)p.r(U)p.r(G)p.r(A)p.r(C)p.r(C)p.r(A)p.r(A)p.r(A)p.r(A)p.r(U)p.r(U)p.d(T)p.d(T)}|RNA2{r(A)p.r(A)p.r(U)p.r(U)p.r(U)p.r(U)p.r(G)p.r(G)p.r(U)p.r(C)p.r(A)p.r(U)p.r(G)p.r(A)p.r(A)p.r(A)p.r(C)p.r(G)p.r(U)p.d(A)p.d(C)}$$$RNA1{StrandType:ss}|RNA2{StrandType:as}$	92.1%
RNA1{r(A)p.r(C)p.r(U)p.r(U)p.r(G)p.r(A)p.r(A)p.r(C)p.r(U)p.r(A)p.r(U)p.r(U)p.r(C)p.r(C)p.r(U)p.r(U)p.r(C)p.r(C)p.r(A)p.d(T)p.d(T)}|RNA2{r(U)p.r(G)p.r(G)p.r(A)p.r(A)p.r(G)p.r(G)p.r(A)p.r(A)p.r(U)p.r(A)p.r(G)p.r(U)p.r(U)p.r(C)p.r(A)p.r(A)p.r(G)p.r(U)p.d(T)p.d(T)}$$$RNA1{StrandType:ss}|RNA2{StrandType:as}$	96.1%
RNA1{r(A)p.r(G)p.r(A)p.r(A)p.r(C)p.r(C)p.r(A)p.r(G)p.r(U)p.r(U)p.r(C)p.r(C)p.r(U)p.r(G)p.r(G)p.r(C)p.r(A)p.r(U)p.r(C)p.d(T)p.d(T)}|RNA2{r(G)p.r(A)p.r(U)p.r(G)p.r(C)p.r(C)p.r(A)p.r(G)p.r(G)p.r(A)p.r(A)p.r(C)p.r(U)p.r(G)p.r(G)p.r(U)p.r(U)p.r(C)p.r(U)p.d(G)p.d(C)}$$$RNA1{StrandType:ss}|RNA2{StrandType:as}$	60.7%
RNA1{r(A)p.r(G)p.r(A)p.r(A)p.r(U)p.r(A)p.r(C)p.r(C)p.r(C)p.r(A)p.r(A)p.r(U)p.r(G)p.r(G)p.r(C)p.r(A)p.r(G)p.r(C)p.r(C)p.d(T)p.d(T)}|RNA2{r(G)p.r(G)p.r(C)p.r(U)p.r(G)p.r(C)p.r(C)p.r(A)p.r(U)p.r(U)p.r(G)p.r(G)p.r(G)p.r(U)p.r(A)p.r(U)p.r(U)p.r(C)p.r(U)p.d(T)p.d(C)}$$$RNA1{StrandType:ss}|RNA2{StrandType:as}$	44.7%

target: UBE2K; assay: reporter assay of Huesken 2005; conditions: siRNA

Substance	normalised inhibition (eCFP-eYFP dual reporter)
RNA1{r(U)p.r(U)p.r(C)p.r(C)p.r(G)p.r(U)p.r(C)p.r(A)p.r(C)p.r(A)p.r(G)p.r(G)p.r(G)p.r(G)p.r(C)p.r(U)p.r(A)p.r(U)p.r(U)p.d(T)p.d(T)}|RNA2{r(A)p.r(A)p.r(U)p.r(A)p.r(G)p.r(C)p.r(C)p.r(C)p.r(C)p.r(U)p.r(G)p.r(U)p.r(G)p.r(A)p.r(C)p.r(G)p.r(G)p.r(A)p.r(A)p.d(C)p.d(T)}$$$RNA1{StrandType:ss}|RNA2{StrandType:as}$	55.5%
RNA1{r(U)p.r(U)p.r(G)p.r(U)p.r(A)p.r(G)p.r(A)p.r(U)p.r(G)p.r(A)p.r(G)p.r(A)p.r(A)p.r(U)p.r(U)p.r(U)p.r(U)p.r(A)p.r(C)p.d(T)p.d(T)}|RNA2{r(G)p.r(U)p.r(A)p.r(A)p.r(A)p.r(A)p.r(U)p.r(U)p.r(C)p.r(U)p.r(C)p.r(A)p.r(U)p.r(C)p.r(U)p.r(A)p.r(C)p.r(A)p.r(A)p.d(G)p.d(A)}$$$RNA1{StrandType:ss}|RNA2{StrandType:as}$	55.1%
RNA1{r(U)p.r(U)p.r(U)p.r(G)p.r(U)p.r(U)p.r(U)p.r(G)p.r(G)p.r(A)p.r(U)p.r(A)p.r(U)p.r(C)p.r(C)p.r(U)p.r(G)p.r(A)p.r(A)p.d(T)p.d(T)}|RNA2{r(U)p.r(U)p.r(C)p.r(A)p.r(G)p.r(G)p.r(A)p.r(U)p.r(A)p.r(U)p.r(C)p.r(C)p.r(A)p.r(A)p.r(A)p.r(C)p.r(A)p.r(A)p.r(A)p.d(T)p.d(A)}$$$RNA1{StrandType:ss}|RNA2{StrandType:as}$	78.9%
RNA1{r(U)p.r(U)p.r(U)p.r(U)p.r(A)p.r(C)p.r(A)p.r(G)p.r(A)p.r(A)p.r(U)p.r(U)p.r(A)p.r(A)p.r(G)p.r(A)p.r(G)p.r(G)p.r(A)p.d(T)p.d(T)}|RNA2{r(U)p.r(C)p.r(C)p.r(U)p.r(C)p.r(U)p.r(U)p.r(A)p.r(A)p.r(U)p.r(U)p.r(C)p.r(U)p.r(G)p.r(U)p.r(A)p.r(A)p.r(A)p.r(A)p.d(T)p.d(T)}$$$RNA1{StrandType:ss}|RNA2{StrandType:as}$	47.6%
